Assay results from ChEMBL document CHEMBL4507310, “Data for DCP probe A-1211212” (2021).

What was measured:
[1] = system: Phosphatidylinositol 4,5-bisphosphate 3-kinase catalytic subunit alpha isoform (Homo sapiens), P42336 [M1043I]; settings: Compound concentration 1000.0 nM
[2] = target: Mitogen-activated protein kinase 4 (Homo sapiens) (UniProt P31152); settings: Compound concentration 1000.0 nM
[3] = target: Sigma intracellular receptor 2 (Homo sapiens, UniProt Q5BJF2); settings: Compound concentration 10.0 uM
[4] = target: Adenosine receptor A2a (Homo sapiens) (UniProt P29274); assay: A2A (h) Eurofins-Cerep binding assay; design: ligand concentration 6 nM; settings: filed as agonist, Compound concentration 10.0 uM
Chain of Adenosine receptor A2a (Homo sapiens) (P29274 whole entry): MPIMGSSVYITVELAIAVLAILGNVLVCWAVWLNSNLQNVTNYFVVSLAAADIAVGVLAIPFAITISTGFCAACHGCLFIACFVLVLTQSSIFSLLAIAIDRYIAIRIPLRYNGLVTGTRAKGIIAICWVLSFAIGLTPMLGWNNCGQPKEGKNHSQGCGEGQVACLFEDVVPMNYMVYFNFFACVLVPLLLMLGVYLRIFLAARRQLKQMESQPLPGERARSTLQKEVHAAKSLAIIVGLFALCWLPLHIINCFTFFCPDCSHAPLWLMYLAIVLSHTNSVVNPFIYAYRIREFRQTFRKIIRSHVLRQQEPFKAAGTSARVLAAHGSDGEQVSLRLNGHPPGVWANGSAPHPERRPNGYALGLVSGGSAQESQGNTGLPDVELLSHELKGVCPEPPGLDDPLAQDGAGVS

[5] = target: Serine/threonine-protein kinase Nek10 (Homo sapiens) (UniProt Q6ZWH5); settings: Compound concentration 1000.0 nM
Chain of Serine/threonine-protein kinase Nek10 (Homo sapiens) (Q6ZWH5 whole entry): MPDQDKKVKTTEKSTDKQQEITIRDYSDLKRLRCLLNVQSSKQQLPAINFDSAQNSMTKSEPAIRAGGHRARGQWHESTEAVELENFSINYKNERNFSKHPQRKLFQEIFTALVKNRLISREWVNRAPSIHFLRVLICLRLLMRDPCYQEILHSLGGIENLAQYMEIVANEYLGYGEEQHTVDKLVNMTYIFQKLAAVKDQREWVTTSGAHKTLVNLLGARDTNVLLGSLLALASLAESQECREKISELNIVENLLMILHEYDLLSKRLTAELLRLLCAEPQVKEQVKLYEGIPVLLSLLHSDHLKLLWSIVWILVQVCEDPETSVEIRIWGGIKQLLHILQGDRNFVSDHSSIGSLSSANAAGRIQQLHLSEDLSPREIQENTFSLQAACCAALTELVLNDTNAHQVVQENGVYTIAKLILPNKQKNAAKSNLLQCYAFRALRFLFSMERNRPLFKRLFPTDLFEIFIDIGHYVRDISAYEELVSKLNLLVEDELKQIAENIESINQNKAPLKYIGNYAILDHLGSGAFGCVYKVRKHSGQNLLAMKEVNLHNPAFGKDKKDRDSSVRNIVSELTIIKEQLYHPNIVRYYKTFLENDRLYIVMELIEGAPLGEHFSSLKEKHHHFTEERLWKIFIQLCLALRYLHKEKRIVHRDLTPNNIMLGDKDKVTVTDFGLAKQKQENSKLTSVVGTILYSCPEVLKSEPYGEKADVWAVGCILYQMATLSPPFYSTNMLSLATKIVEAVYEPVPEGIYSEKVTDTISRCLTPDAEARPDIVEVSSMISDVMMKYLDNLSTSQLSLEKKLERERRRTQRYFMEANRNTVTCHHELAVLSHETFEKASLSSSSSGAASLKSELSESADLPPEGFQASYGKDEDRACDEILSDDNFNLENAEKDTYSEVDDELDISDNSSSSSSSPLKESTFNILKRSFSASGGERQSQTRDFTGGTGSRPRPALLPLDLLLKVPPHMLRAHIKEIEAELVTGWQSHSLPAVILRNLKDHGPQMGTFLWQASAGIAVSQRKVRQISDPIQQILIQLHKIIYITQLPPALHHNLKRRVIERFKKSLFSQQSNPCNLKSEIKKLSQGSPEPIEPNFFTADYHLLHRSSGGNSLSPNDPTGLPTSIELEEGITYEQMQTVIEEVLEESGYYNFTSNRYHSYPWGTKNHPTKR

[6] = target: Cholecystokinin receptor type A (Homo sapiens) (UniProt P32238); assay: CCK1 (CCKA) (h) Eurofins-Cerep binding assay; design: ligand concentration 0.08 nM; settings: filed as agonist, Compound concentration 10.0 uM
Chain of Cholecystokinin receptor type A (Homo sapiens) (P32238 whole entry): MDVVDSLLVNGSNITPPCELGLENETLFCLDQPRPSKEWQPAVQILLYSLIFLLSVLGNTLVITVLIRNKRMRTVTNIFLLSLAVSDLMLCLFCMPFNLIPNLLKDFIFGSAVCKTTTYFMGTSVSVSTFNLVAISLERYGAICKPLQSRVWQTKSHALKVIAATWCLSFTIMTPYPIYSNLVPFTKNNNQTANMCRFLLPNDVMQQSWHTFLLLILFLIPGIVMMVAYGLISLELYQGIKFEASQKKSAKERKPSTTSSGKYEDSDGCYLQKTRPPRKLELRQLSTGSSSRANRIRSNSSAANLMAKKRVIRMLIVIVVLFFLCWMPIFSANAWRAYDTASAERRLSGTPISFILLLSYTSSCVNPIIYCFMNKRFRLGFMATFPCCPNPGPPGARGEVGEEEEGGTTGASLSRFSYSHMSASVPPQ

[7] = target: Ephrin type-A receptor 5 (Homo sapiens) (UniProt P54756); settings: Compound concentration 1000.0 nM
[8] = target: Serine/threonine-protein kinase TBK1 (Homo sapiens) (UniProt Q9UHD2); settings: Compound concentration 1000.0 nM
Chain of Serine/threonine-protein kinase TBK1 (Homo sapiens) (Q9UHD2 whole entry): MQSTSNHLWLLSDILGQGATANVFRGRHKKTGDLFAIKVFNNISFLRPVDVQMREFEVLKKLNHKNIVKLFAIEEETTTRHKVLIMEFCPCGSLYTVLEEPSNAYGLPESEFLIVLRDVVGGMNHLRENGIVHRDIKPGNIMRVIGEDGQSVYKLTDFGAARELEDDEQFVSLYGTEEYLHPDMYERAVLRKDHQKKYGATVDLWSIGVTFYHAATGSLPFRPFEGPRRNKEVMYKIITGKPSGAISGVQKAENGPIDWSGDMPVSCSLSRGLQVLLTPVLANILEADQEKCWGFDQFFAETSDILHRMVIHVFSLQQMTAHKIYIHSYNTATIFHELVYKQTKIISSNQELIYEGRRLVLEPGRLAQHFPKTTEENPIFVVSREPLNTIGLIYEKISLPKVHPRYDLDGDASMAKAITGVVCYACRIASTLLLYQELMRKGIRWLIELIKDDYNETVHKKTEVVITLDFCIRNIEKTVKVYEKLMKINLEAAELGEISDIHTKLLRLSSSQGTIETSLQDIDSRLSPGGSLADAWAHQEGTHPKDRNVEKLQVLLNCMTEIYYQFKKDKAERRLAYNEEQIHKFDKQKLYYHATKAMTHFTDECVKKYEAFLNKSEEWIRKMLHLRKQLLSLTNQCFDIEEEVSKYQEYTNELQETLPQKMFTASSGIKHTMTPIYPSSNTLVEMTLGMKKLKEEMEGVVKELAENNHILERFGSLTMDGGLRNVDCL

[9] = target: Receptor-interacting serine/threonine-protein kinase 4 (Homo sapiens) (UniProt P57078); settings: Compound concentration 1000.0 nM
[10] = target: Hepatocyte growth factor receptor (Homo sapiens) (UniProt P08581); settings: Compound concentration 1000.0 nM
[11] = target: T1, Alpha-2A adrenergic receptor (Homo sapiens) (UniProt P08913); assay: Alpha2A (h) Eurofins-Cerep binding assay; design: ligand concentration 1 nM; settings: filed as antagonist, Compound concentration 10.0 uM
T1 sequence (whole entry): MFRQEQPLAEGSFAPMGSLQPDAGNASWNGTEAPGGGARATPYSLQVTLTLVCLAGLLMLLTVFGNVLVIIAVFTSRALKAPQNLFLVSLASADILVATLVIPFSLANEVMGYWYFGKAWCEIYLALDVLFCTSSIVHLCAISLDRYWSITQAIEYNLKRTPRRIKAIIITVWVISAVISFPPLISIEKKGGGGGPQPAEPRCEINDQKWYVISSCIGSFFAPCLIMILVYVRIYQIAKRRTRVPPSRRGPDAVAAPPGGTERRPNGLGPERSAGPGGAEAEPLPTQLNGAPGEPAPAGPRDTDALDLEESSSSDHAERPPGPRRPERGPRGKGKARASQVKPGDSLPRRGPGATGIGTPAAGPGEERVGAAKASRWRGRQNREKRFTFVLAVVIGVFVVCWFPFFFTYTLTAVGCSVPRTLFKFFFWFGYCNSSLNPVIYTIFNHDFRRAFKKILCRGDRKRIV

[12] = target: T2, Alpha-1B adrenergic receptor (Homo sapiens) (UniProt P35368); assay: Alpha1B (h) Eurofins-Cerep binding assay; design: ligand concentration 0.15 nM; settings: filed as antagonist, Compound concentration 10.0 uM
T2 sequence (whole entry): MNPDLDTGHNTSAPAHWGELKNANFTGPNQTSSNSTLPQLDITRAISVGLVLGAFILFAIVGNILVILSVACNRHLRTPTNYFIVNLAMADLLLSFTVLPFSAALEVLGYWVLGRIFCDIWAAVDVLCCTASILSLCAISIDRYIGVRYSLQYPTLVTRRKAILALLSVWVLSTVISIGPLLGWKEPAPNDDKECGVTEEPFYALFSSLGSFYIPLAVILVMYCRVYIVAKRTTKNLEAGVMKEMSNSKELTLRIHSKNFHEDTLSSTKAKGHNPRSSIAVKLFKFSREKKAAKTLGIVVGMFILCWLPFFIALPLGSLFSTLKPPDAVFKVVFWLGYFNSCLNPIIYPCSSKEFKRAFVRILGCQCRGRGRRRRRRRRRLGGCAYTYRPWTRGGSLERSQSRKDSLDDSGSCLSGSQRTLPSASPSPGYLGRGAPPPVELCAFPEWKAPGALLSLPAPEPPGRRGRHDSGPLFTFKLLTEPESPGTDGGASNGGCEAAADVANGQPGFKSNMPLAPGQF

[13] = target: GABA-A receptor; anion channel (Rattus norvegicus) (UniProt O09028+P15431+P18506+P18508+P19969+P20236+P23574+P23576+P28471+P28473+P30191+P62813+P63079+P63138+Q91ZM7+Q9ES14); assay: Cl- channel (GABA-gated) Eurofins-Cerep binding assay; assay type: protein-complex assay; design: ligand concentration 3 nM; settings: filed as antagonist, Compound concentration 10.0 uM
[14] = target: T2, Alpha-1B adrenergic receptor (Homo sapiens); settings: Compound concentration 10.0 uM
[15] = target: Serine/threonine-protein kinase PknB (Mycobacterium tuberculosis) (UniProt P9WI81); settings: Compound concentration 1000.0 nM
[16] = target: Tyrosine-protein kinase ABL1 (Homo sapiens) (UniProt P00519); settings: Compound concentration 1000.0 nM
[17] = target: T3, 5-hydroxytryptamine receptor 2C (Homo sapiens) (UniProt P28335); settings: Compound concentration 10.0 uM
T3 sequence (whole entry): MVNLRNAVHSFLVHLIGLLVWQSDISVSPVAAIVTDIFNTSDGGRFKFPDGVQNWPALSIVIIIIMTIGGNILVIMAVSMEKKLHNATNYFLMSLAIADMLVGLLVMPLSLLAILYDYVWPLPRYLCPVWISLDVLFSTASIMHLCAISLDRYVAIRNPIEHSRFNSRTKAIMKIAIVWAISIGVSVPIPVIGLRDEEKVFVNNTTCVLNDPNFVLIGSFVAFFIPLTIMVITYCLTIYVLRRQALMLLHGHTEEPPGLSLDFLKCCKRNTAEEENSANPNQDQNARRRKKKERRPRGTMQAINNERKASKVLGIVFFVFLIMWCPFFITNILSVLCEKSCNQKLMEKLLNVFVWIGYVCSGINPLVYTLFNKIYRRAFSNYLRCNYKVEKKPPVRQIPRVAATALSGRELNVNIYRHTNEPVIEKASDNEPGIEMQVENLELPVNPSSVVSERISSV

[18] = target: LIM domain kinase 2 (Homo sapiens) (UniProt P53671); settings: Compound concentration 1000.0 nM
Chain of LIM domain kinase 2 (Homo sapiens) (P53671 whole entry, looked up, the tested form may be a part, canonical isoform): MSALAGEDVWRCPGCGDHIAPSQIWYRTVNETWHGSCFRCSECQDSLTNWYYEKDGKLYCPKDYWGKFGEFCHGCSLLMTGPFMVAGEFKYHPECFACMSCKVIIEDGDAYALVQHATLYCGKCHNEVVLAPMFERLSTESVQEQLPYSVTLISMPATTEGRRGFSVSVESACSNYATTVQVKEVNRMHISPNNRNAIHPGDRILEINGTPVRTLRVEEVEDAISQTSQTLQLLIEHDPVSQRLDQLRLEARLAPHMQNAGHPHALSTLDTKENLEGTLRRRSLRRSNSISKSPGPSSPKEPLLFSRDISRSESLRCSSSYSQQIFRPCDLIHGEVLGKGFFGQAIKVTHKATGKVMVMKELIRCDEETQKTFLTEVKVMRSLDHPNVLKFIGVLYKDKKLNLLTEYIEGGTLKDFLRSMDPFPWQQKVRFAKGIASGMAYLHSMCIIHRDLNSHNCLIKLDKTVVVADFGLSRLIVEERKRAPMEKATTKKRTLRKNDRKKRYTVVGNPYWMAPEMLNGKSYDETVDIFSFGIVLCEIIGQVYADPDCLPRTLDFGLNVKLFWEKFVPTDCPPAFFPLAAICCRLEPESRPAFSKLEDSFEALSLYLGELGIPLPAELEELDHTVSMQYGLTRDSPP

[19] = target: Casein kinase I isoform gamma-3 (Homo sapiens) (UniProt Q9Y6M4); settings: Compound concentration 1000.0 nM
[20] = target: Protein kinase C delta type (Homo sapiens) (UniProt Q05655); settings: Compound concentration 1000.0 nM
[21] = target: Sodium-dependent serotonin transporter (Homo sapiens) (UniProt P31645); assay: 5-HT transporter (h) Eurofins-Cerep binding assay; design: ligand concentration 2 nM; settings: filed as antagonist, Compound concentration 10.0 uM
Chain of Sodium-dependent serotonin transporter (Homo sapiens) (P31645 whole entry, looked up): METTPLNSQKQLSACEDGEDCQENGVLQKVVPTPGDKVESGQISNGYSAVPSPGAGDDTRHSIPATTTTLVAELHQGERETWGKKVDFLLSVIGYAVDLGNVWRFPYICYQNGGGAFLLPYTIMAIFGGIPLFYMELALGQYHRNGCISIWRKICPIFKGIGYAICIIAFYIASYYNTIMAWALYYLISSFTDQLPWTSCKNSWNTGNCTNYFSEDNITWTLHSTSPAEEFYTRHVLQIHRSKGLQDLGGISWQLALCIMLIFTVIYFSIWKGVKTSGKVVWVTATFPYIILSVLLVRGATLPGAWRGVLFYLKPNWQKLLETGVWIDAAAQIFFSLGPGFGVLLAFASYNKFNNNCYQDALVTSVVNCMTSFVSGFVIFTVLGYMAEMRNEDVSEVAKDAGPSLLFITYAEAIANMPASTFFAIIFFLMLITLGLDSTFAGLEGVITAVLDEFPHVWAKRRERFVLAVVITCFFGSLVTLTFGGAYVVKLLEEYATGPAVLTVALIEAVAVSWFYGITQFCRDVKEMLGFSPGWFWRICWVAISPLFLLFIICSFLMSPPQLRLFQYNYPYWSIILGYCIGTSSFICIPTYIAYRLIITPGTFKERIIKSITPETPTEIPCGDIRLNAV

[22] = target: Sodium- and chloride-dependent GABA transporter 1 (Rattus norvegicus) (UniProt P23978); assay: GABA transporter Eurofins-Cerep binding assay; design: ligand concentration 10 nM; settings: filed as antagonist, Compound concentration 10.0 uM
[23] = target: Tyrosine-protein kinase Yes (Homo sapiens) (UniProt P07947); settings: Compound concentration 1000.0 nM
[24] = target: Tyrosine-protein kinase CSK (Homo sapiens) (UniProt P41240); settings: Compound concentration 1000.0 nM
Chain of Tyrosine-protein kinase CSK (Homo sapiens) (P41240 2-450 limits assumed): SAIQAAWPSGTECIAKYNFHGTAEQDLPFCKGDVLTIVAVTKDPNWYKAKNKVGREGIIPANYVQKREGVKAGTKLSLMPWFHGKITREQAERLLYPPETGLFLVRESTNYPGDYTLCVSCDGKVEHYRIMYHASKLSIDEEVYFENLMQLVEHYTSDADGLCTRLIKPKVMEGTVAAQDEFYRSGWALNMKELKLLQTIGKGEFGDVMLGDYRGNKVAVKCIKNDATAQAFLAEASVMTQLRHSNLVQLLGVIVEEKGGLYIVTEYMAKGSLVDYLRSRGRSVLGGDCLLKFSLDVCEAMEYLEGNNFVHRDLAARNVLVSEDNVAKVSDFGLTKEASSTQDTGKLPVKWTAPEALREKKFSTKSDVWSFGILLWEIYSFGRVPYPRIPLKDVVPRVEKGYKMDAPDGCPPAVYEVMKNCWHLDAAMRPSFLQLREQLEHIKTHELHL

Chain of Mitogen-activated protein kinase 4 (Homo sapiens) (P31152 whole entry): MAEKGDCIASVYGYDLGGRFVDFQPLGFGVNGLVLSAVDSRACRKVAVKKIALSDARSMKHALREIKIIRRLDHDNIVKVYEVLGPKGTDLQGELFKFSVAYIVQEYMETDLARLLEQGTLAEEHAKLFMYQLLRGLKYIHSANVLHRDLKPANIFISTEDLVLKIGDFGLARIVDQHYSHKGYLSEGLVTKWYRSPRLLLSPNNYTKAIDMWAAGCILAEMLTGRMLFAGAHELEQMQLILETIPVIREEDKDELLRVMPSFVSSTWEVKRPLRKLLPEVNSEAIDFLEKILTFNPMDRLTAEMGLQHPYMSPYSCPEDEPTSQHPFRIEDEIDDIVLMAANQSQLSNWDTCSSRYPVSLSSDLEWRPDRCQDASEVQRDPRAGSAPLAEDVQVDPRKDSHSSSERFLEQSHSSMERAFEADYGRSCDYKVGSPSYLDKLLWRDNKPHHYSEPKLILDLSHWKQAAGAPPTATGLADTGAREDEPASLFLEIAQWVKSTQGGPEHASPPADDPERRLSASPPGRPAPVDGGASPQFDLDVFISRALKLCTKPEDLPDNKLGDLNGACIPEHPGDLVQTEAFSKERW

SMILES	residual activity [1] [%]	residual activity [2] [%]	inhibition [3] [%]	% Inhibition of Control Specific Binding (Mean n=2) [4] [%]	residual activity [5] [%]	% Inhibition of Control Specific Binding (Mean n=2) [6] [%]	residual activity [7] [%]	residual activity [8] [%]	residual activity [9] [%]	residual activity [10] [%]	% Inhibition of Control Specific Binding (Mean n=2) [11] [%]	% Inhibition of Control Specific Binding (Mean n=2) [12] [%]	% Inhibition of Control Specific Binding (Mean n=2) [13] [%]	inhibition [14] [%]	residual activity [15] [%]	residual activity [16] [%]	inhibition [17] [%]	residual activity [18] [%]	residual activity [19] [%]	residual activity [20] [%]	also measured
O=C(NS(=O)(=O)c1ccc(NCC2CCOCC2)c([N+](=O)[O-])c1)c1ccc(N2CCN(Cc3ccc(C(F)(F)F)cc3-c3ccc(Cl)cc3)CC2)cc1Oc1cnc2[nH]ccc2c1 [A-1210227]	51	97	54.3	1.3	100	-44.1	76	74	75	93	-5.2	13.5	-1.3	12.3	90	100	-0.17	97	75	100	% Inhibition of Control Specific Binding (Mean n=2) [21]: 0.4%; % Inhibition of Control Specific Binding (Mean n=2) [22]: -10.3%; residual activity [23]: 100%; residual activity [24]: 87%
CO[C@H]1CC[C@H](CNc2ccc(S(=O)(=O)NC(=O)c3ccc(N4CCN(CC5=C(c6ccc(Cl)cc6)CC(C)(C)CC5)CC4)cc3Oc3cnc4[nH]ccc4c3)cc2[N+](=O)[O-])CC1 [A-1211212]	74	100	60.7	-4.4	100	1.6	78	60	65	68	-11.2	15.4	1.3	1.2	86	71	-4.69	80	91	70	% Inhibition of Control Specific Binding (Mean n=2) [21]: -2.2%; % Inhibition of Control Specific Binding (Mean n=2) [22]: -2.6%; residual activity [23]: 88%; residual activity [24]: 76%
